Assay results taken from patent publication US20140128336A1, “MEDICAL PRODUCTS FOR USE IN CONDITIONS RELATED TO MICROBIAL INFECTIONS IN THE UPPER AERODIGESTIVE TRACT” (BIOHIT OYJ, priority 2011, published 2014).

How the values were obtained:
[1] = tested on: H. pylori strains (NCTC 11637, ATCC 43504); test: Modified pellicle assay for H. pylori biofilm formation; type: cell-based, Helicobacter pylori
From the text: In this example, H. pylori strains (NCTC 11637, National Culture Collection, London, UK, and ATCC 43504, American Type Culture Collection), grown in liquid culture without shaking, were examined to determine their ability to form biofilms in the presence and absence of L-cysteine. The bacteria were screened for biofilm production using modified pellicle assay as previously described by Joshua et al. 2006 (14). The formation of pellicles at the liquid-gas interface of cultures grown without shaking was observed after 3-6 days. All isolates were grown in 13-by 125-mm glass test tubes containing 6 ml of BHI broth supplemented with 2% (w/v) β-cyclodextrin (BCD; Sigma) in the presence and absence of L-cysteine. The bacterial concentration was adjusted equivalently to approximately 0.5 McFarland standard (˜10^8 CFU/ml). The cultures were incubated under microaerobic conditions (N2 85%; O2 5%; CO2 10%) at 35° C. for 7 days without shaking. Development of pellicle and/or attached bacterial cells at interior surface of test tube at the air-liquid interface, representing as biofilm, was examined daily. In the tests using L-cysteine and N-acetyl-cysteine, increasing amounts of L-cysteine or N-acetyl-cysteine were added in increasing concentrations to the culture medium.

H. pylori = test: Open-label randomized trial, eradication of Helicobacter pylori; type: in vivo, human; conditions: patients with at least four eradication failures; 600 mg NAC once a day for seven days before culture-guided antibiotic regimen; standard group 4/20
Protocol: In this open-label randomized trial, 50% of patients with at least four H. pylori eradication failures received before culture-guided antibiotic regimen 600 mg of N-acetylcysteine (NAC) once a day for seven days. In the NAC-pretreatment group H. pylori were successfully eradicated in 13/20 and in standard group only in 4/20 patients (p<01).

C. cladosporioides = conditions: block containing cysteine; cited from earlier work
[2] = tested on: Cladosporium cladosporioides; conditions: cited from earlier work

| Structure (SMILES) | inhibition of H. pylori biofilm formation ([1]; 2 mg/ml in culture medium) | inhibition of H. pylori biofilm formation ([1]; 10 mg/ml in culture medium) | inhibition of H. pylori biofilm formation ([1]; 20 mg/ml in culture medium) | H. pylori successfully eradicated (H. pylori) | biofilm of C. cladosporioides on surface of silicone block (C. cladosporioides) | production of ATP in C. cladosporioides [2] | growth of Cladosporium cladosporioides ([2]; cultured with cysteine) |
| --- | --- | --- | --- | --- | --- | --- | --- |
| N[C@@H](CS)C(=O)O [L-cysteine] | partly | completely | completely |  |  |  |  |
| CC(=O)N[C@@H](CS)C(=O)O [N-acetylcysteine, reference compound] | partly | completely | completely | 13/20 |  |  |  |
| N[C@@H](CS)C(=O)O [cysteine] |  |  |  |  | not covered with biofilm | inhibited | completely and statically inhibited |
